Test results as given in patent US11767506B2, “In vitro maturation culture medium of immature oocytes and use thereof” (CHINA AGRICULTURAL UNIVERSITY, priority 2017, dated 2023).

Experiments:
human immature oocytes = test: In vitro maturation of human immature oocytes on granule cell feeder layer, then ICSI and embryo culture; format: cell-based
Experimental: Microdrop culture of granule cells: the cumulus oocyte complex collected from superovulation of patients were digested with hyaluronidase and then centrifuged to obtain the granule cells; the cells were cultured in the culture solution for in vitro maturation of examples 1˜6 for microdroplet adherent culture respectively. The microdroplets were covered with liquid paraffin. After the granule cells adhered to the wall of the culture dishes, the resultants could be used as the culture medium 1˜6 for in vitro maturation of immature oocytes.
The immature oocytes identified from superovulation of patients were put in the culture medium for in vitro maturation 1 (i.e., the culture medium obtained by using the culture solution for in vitro maturation of Example 1) containing feeder layer cells for microdrop culture. There were 1˜2 oocytes per microdroplet, culture time 20˜25 h, and culture conditions: 37° C., air with 5% CO2 and 6% of O2, and humidity 100%. The development results of the immature oocytes after microdroplet culturing in the culture medium for in vitro maturation 1 were shown in FIG. 1.
Intracytoplasmic sperm injection (ICSI) using the mature oocytes: the immature oocytes were culture in vitro for 20˜25 h, the maturation status was observed. The oocytes reached the metaphase II (MII) were placed under micromanipulator for ICSI injection.
Embryo culture after fertilization: embryo culture medium G-1PLUS™ (Vitrolife, Sweden) was used to make several 50 μL microdroplets in a 35 mm culture dish. Mineral oil was covered on the surface of the droplets. This culture medium was suitable for culturing embryos from fertilized oocyte (0 day) to 8-cell embryo.
Embryo culture medium G-2 PLUS™ (Vitrolife. Sweden) was used to make several 50 μL microdroplets in a 35 mm Petri culture dish. Mineral oil was covered on the surface of the droplets. This culture medium was suitable for culturing embryos from 8-cell stage until blastocyst stage.
The common medium for maturation was M199 culture medium.

mouse oocytes = test: In vitro maturation of mouse immature oocytes (cumulus oocyte complexes) on mouse granule cells, fertilization and embryo culture; format: cell-based, C57/BL6J mice
Text: The specific culture method was referred to Example 8, and the differences were: instead of the granule cells form patients, granule cells from C57/BL6J mice were used; instead of the oocytes form patients, cumulus oocyte complexes form C57/BL6J mice were used.

[1] = test system: human ovary granule cells; test: Expression/secretion of EGF-like growth factors (AREG) by granule cells; format: cell-based; settings: FIG. 1F
Experimental: Correspondingly, our experiments were performed by: under conditions of in vitro culture, simulating the effect of LH, which functions on granule cells to promote the maturation of oocytes in vivo, so as to achieve the goal of promoting the maturation of oocytes and meanwhile, improving the development potential.

[2] = test system: oocyte in follicle of mouse; test: In vitro follicle culture model, recovery of oocyte meiosis; format: cell-based; settings: FIG. 2A

## Cc1ccc(NC(=O)CCCCCC(=O)Nc2ccccc2N)cc1 [HDACi 4b]
Human immature oocytes; FIG. 1A
  maturation and development of human oocytes from germinal vesicle (GV) stage into metaphase II (MII) stage: promotes the maturation and development
Human immature oocytes; FIG. 1B, treated group versus control group
  numbers of 2 pronucleus zygotes (2PN) obtained by ICSI fertilization on MII oocytes: basically the same
Human immature oocytes; FIG. 1C
  cleavage ability of treated oocytes after fertilization: significantly improved
Human immature oocytes; FIG. 1E
  development ability of embryos (blastocyst counting): significantly increased
Human immature oocytes; FIG. 1G
  quality of blastocysts (immunofluorescence of OCT4 and CDX2): significantly improved
Mouse oocytes; FIG. 2
  maturation and development ability of mouse oocytes: significantly promotes
Mouse oocytes; FIG. 2C
  oocyte stepping over the first meiosis to metaphase II (MII): significantly promotes
Mouse oocytes; FIG. 2D, versus control group
  cleavage abilities after fertilization: basically the same
Mouse oocytes; FIG. 2E
  ability to develop into an embryo from fertilized GV stage oocytes: significantly improved
Mouse oocytes; FIG. 2F
  ability to develop into a blastocyst from fertilized treated oocytes: significantly increased
Mouse oocytes; FIG. 2H
  ability to develop into a blastocyst (blastocyst counting) from fertilized treated GV stage oocytes: significantly increased
Mouse oocytes; FIG. 2I
  quality of blastocysts (immunofluorescence of OCT4): significantly increased
[1]
  expression of AREG: significantly promotes
[2]
  recovery of oocyte meiosis in follicle of mouse: significantly promotes
